Assay results reported in patent publication US4172130A, “α-AMINOACYL CONTAINING NEW PEPTIDES WITH GASTRIN EFFECTS AND A PROCESS FOR THE PREPARATION THEREOF” (Richter Gedeon Vegyeszeti Gyar RT, priority 1976, dated 1979).
Peptide text beside a SMILES is read from it. * marks the point of attachment. X2 = CC(C)(C)OC(=O)NOCC(=O)*

Key:
gastric acid secretion [1] = assay: Gastric acid secretion increasing effect, methods of Ghosh and Schild and Lai, modified by Pissidis and Clark; type: in vivo; conditions: for Activity, % (gastric acid secretion increasing effect): in comparison with 0.2 μ/100 g i.v. dosage of pentagastrin = 100%
Procedure: The biological activities of the new compounds according to the invention were tested by the methods of Ghosh and Schild (Br. J. Pharmac. Chemoth. 13, 54 (1958) and Lai (Gut. 5, 327 (1964), modified by Pissidis and Clark (Gut. 8, 196 (1967)). The pharmacological tests have shown that the gastric acid secretion provoked by the new compounds is occasionally higher by 20 to 80% than that provoked by the same dosage of pentagastrin. It is particularly remarkable that the new compounds, in contrast with pentagastrin, are resorbed also from the small intenstine, and, when administered to the small intenstine in a dosage of 20 μg/100 g body weight, exert effects similar to that exerted by a 0.2 μg/100 g i.v. dosage of pentagastrin. […] It is also remarkable that some of the new compounds increase the gastric acid secretion after resorption from the rectum.

gastric acid secretion [2] = conditions: in vivo; cited from earlier work

Molecule	Activity, % (gastric acid secretion increasing effect) (gastric acid secretion [1]; 0.2 μg i.v.)	Activity, % (gastric acid secretion increasing effect) (gastric acid secretion [1]; 20 μg rectal)	further results
CSCC[C@H](NC(=O)[C@H](Cc1c[nH]c2ccccc12)NC(=O)CONC(=O)OC(C)(C)C)C(=O)N[C@@H](CC(=O)O)C(=O)N[C@@H](Cc1ccccc1)C(=O)NOCC(=O)O [BOC-O-Gly Met OGly-OH, 2-(2-(tert.-Butoxycarbonyl-aminooxy)-acetyl-L-tryptophyl-L-methionyl-L-aspartyl-L-phenylalanyl-aminooxy)-acetic acid]	25%	22%	
CC(C)C[C@H](NC(=O)[C@H](Cc1c[nH]c2ccccc12)NC(=O)CONC(=O)OC(C)(C)C)C(=O)N[C@@H](CC(=O)O)C(=O)N[C@@H](Cc1ccccc1)C(N)=O [BOC-OGly Leu H, 2-(tert.-Butoxycarbonyl-aminooxy)-acetyl-L-tryptophyl-L-leucyl-L-aspartyl-L-phenylalanine-amide] (X2-WLDF-NH2)	124%	68%	Activity, % (gastric acid secretion increasing effect) (gastric acid secretion [1]; 2.0 μg i.v.): 272%; Activity, % (gastric acid secretion increasing effect) (gastric acid secretion [1]; 20 μg intestinal): 6%
CSCC[C@H](NC(=O)[C@H](Cc1c[nH]c2ccccc12)NC(=O)CCONC(=O)OC(C)(C)C)C(=O)N[C@@H](CC(=O)O)C(=O)N[C@@H](Cc1ccccc1)C(=O)NOCC(=O)O [BOC-β-OAla Met OGly-OH, 2-(3-(tert.-Butoxycarbonyl-aminooxy)-propionyl-L-tryptophyl-L-methionyl-L-aspartyl-L-phenylalanyl-aminooxy)-acetic acid]	32%		
CSCC[C@H](NC(=O)[C@H](Cc1c[nH]c2ccccc12)NC(=O)CCNC(=O)OC(C)(C)C)C(=O)N[C@@H](CC(=O)O)C(=O)N[C@@H](Cc1ccccc1)C(N)=O [pentagastrin, BOC--β--Ala-- Trp--Met--Asp--Phe--NH2, reference compound]	100%		gastric acid secretion when administered enterally (gastric acid secretion [1]; enteral, even in higher dosages): does not increase the gastric acid secretion; activity among known analogs and derivatives of the tetrapeptide-amide / compared with pentagastrin (gastric acid secretion [2]): the most active derivative
H--Trp--Met--Asp--Phe--NH2: carboxy-terminal tetrapeptide-amide, the biologically active center of gastrin			gastric acid secretion stimulating effect compared with the total hormone (gastrin) (gastric acid secretion [2]): lower by about one order of magnitude
